US20240262842A1, “SMALL MOLECULE INHIBITORS OF KRAS G12C MUTANT” (Merck Sharp & Dohme LLC, priority 2021, published 2024)
Read-outs that look alike come from different tables or passages of the source.

Experiments:
MIA PaCa-2 cells = experiment: Growth inhibition activity on KRAS-G12C mutant cell line (CellTiter-Glo 3D); assay type: cell-based, human; details: MIA PaCa-2, 3-day culture with compound
Outline: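 IC50 (nM) derived from inhibition of luminescence (CellTiter-Glo 3D) relative to compound-free wells. Cells were seeded in U-bottom plates, grown 1 day, then exposed to compound for 3 days at 37 °C with 0.2% final DMSO.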

[1] = biological target: T1, interaction between GMPPNP-bound recombinant K-Ras4B G12C mutant protein and cRAF RAS-binding domain (cRAF-RBD) (Homo sapiens, UniProt P01116, G12C); experiment: Inhibitory activity on interaction between KRAS G12C and cRAF (Alpha technology)
T1 construct: His-tag (N)
Outline: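 Alpha signal measured 1.5 h after adding cRAF-RBD (aa 50-132) and detection reagents to GMPPNP-bound KRAS G12C (aa 1-169) pretreated 1 h at 25° C with compound (pH 7.5 buffer). 0% inhibition = DMSO, 100% = GDP-loaded KRAS; IC50 by curve fit.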

[2] = Homo sapiens, MIA PaCa-2, 72 h, Table 3-1
[3] = GMPPNP-bound KRAS G12C incubated with compound 25° C. 1 hour, Table 2-1, read-out: IC50
[4] = Homo sapiens, MIA PaCa-2, 72 h, Table 3
[5] = GMPPNP-bound KRAS G12C incubated with compound 25° C. 1 hour, Table 2, read-out: IC50
[6] = IC50, GMPPNP-bound KRAS G12C incubated with compound 25° C. 1 hour, Table 2

T1 sequence (P01116 with tags, fused parts or gaps isoform P01116-2 G12C): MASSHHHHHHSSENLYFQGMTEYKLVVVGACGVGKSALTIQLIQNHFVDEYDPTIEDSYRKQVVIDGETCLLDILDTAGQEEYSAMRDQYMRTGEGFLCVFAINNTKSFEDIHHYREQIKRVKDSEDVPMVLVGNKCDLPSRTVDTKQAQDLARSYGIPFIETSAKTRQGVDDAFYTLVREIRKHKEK

Structure (SMILES): COc1cc2c(nc(C)n2C)c2c1-c1cccn3c(C(=O)c4cc(F)c(NC(=O)/C=C/CNC5(C)CC5)c(F)c4)cc(c13)CCS2 [Example 225, (E)-N-(2,6-difluoro-4-(7-methoxy-9,10-dimethyl-13,14-dihydro-9H-imidazo[4″,5″:5′,6′]benzo-[1′,2′:2,3]thiocino[4,5,6-hi]indolizine-2-carbonyl)-phenyl)-4-((1-methyl-cyclopropyl)amino)but-2-enamide]
- IC50 (MIA PaCa-2 cells; [2]): 7.18 nM
- IC50 [1, 3]: 10.1 nM

Structure (SMILES): Cc1nc2c3c(c(C(F)(F)F)cc2n1C)-c1cccn2c(C(=O)c4cc(F)c(NC(=O)/C=C/CNC5(C)CCOC5)c(F)c4)cc(c12)CCO3 (stereo not shown) [Example 41]
- IC50 (MIA PaCa-2 cells; [4]): 4 nM
- IC50 [1, 5]: 10 nM

Structure (SMILES): COCc1nc2c3c(c(C(F)(F)F)cc2n1C)-c1cccn2c(C(=O)c4cc(F)c(NC(=O)/C=C/CN[C@H]5CCOC5)c(F)c4)nc(c12)CCN3C (single isomer, unassigned) [Example 184]
- IC50 (MIA PaCa-2 cells; [2]): 28.1 nM
- IC50 [1, 3]: 48.3 nM

Structure (SMILES): CN1CCc2cc(C(=O)c3cc(F)c(NC(=O)/C=C/CN[C@H]4CCCC[C@@H]4O)c(F)c3)n3cccc(c23)-c2c(C(F)(F)F)cc3c(ncn3C)c21 [Example 101]
- IC50 (MIA PaCa-2 cells; [2]): 26.5 nM
- IC50 [1, 3]: 27.4 nM

Structure (SMILES): CO[C@H]1CC[C@H](NC/C=C/C(=O)Nc2c(F)cc(C(=O)c3cc4c5c(cccn35)-c3c(C(F)(F)F)cc5c(nc(C)n5C)c3N(C)CC4)cc2F)CC1 (single isomer, unassigned) [Example 63, (E)-N-(2,6-difluoro-4-(9,10,12-trimethyl-7-(tri-fluoromethyl)-9,12,13,14-tetrahydroimidazo-[4″,5″:5′,6′]benzo[1′,2′: 2,3]azocino[4,5,6-hi]-indolizine-2-carbonyl)-phenyl)-4-(((1r,4r)-4-methoxycyclohexyl)-amino)but-2-enamide]
- IC50 (MIA PaCa-2 cells; [2]): 2.48 nM
- IC50 [1, 3]: 14.2 nM

Structure (SMILES): Cc1cnc2c3c(c(C(F)(F)F)cn12)-c1cccn2c(C(=O)c4cc(F)c(NC(=O)/C=C/CNC5(C)COC5)c(F)c4)cc(c12)CCN3C [Example 187, (E)-N-(4-(10,13-dimethyl-7-(trifluoromethyl)-14,15-dihydro-13H-imidazo[1″,2″:1′,2′]pyrido[3′,4′:2,3]azocino[4,5,6-hi]indolizine-2-carbonyl)-2,6-difluorophenyl)-4-((3-methyloxetan-3-yl)amino)but-2-enamide]
- IC50 (MIA PaCa-2 cells; [2]): 39 nM
- IC50 [1, 3]: 36.4 nM

Structure (SMILES): Cn1cnc2c3c(c(C(F)(F)F)cc21)-c1cccn2c(C(=O)c4cc(F)c(NC(=O)/C=C/CN5C6CCCC5CC6)c(F)c4)cc(c12)CCO3 [Example 235, (E)-4-((1R,5S)-8-azabicyclo[3.2.1]octan-8-yl)-N-(2,6-difluoro-4-(9-methyl-7-(trifluoro-methyl)-13,14-dihydro-9H-imidazo[4″,5″:5′,6′]-benzo[1′,2′:2,3]oxocino-[4,5,6-hi]indolizine-2-carbonyl)phenyl)but-2-enamide]
- IC50 (MIA PaCa-2 cells; [2]): 17 nM
- IC50 [1, 3]: 21.9 nM

Structure (SMILES): CO[C@H]1CC[C@H](NC/C=C/C(=O)Nc2ccc(C(=O)c3cc4c5c(cccn35)-c3c(C(F)(F)F)cc5c(nc(C)n5C)c3OCC4)cc2)CC1 [Example 37, (E)-N-(4-(9,10-dimethyl-7-(trifluoromethyl)-13,14-dihydro-9H-imidazo[4″,5″:5′,6′]benzo[1′,2′:2,3]oxocino[4,5,6-hi]indolizine-2-carbonyl)phenyl)-4-(((1,4r)-4-methoxycyclohexyl)amino)but-2-enamide]
- IC50 (MIA PaCa-2 cells; [4]): 28 nM
- IC50 [1, 5]: 40 nM

Structure (SMILES): CO[C@H]1CC[C@H](NC/C=C/C(=O)Nc2c(F)cc(C(=O)c3cn4c5c(cccc35)-c3c(Cl)cccc3OCCC4)cc2F)CC1 (single isomer, unassigned) [Example 4-1, (E)-N-(4-(11-chloro-5,6-dihydro-4H-benzo[8,9][1,5]oxazonino[7,6,5-hi]indole-1-carbonyl)-2,6-difluorophenyl)-4-(((1,4r)-4-methoxycyclohexyl)amino)but-2-enamide]
- IC50 (MIA PaCa-2 cells; Table 3): 3600 nM
- IC50 [1, 6]: > 6700 nM

Structure (SMILES): COc1cc2c(nc(C)n2C)c2c1-c1cccn3c(C(=O)c4cc(F)c(NC(=O)/C=C/CNC5(C)COC5)c(F)c4)cc(c13)CCN2C (single isomer, unassigned) [Example 141, (E)-N-(2,6-difluoro-4-(7-methoxy-9,10,12-trimethyl-9,12,13,14-tetrahydroimidazo[4″,5″: 5′,6′]benzo[1′,2′:2,3]-azocino[4,5,6-hi]indol-izine-2-carbonyl)phenyl)-4-((3-methyloxetan-3-yl)-amino)but-2-enamide]
- IC50 (MIA PaCa-2 cells; [2]): 34.3 nM
- IC50 [1, 3]: 9.71 nM

Structure (SMILES): Cc1nc2c3c(c(C(F)(F)F)cc2n1C)-c1cccn2c(C(=O)c4cc(F)c(NC(=O)C=CCNC5CCOC5)c(F)c4)nc(c12)CCN3C [Example 148, (S,E)-N-(2,6-difluoro-4-(8,9,11-trimethyl-6-(trifluoromethyl)-8,11,12,13-tetrahydro-1,2a,8,10,11-pentaazacycloocta[1,2,3-cd:5,4-e′]diindene-2-carbonyl)phenyl)-4-((tetrahydrofuran-3-yl)amino)but-2-enamide]
- IC50 (MIA PaCa-2 cells; [2]): 19.1 nM
- IC50 [1, 3]: 23.2 nM

Structure (SMILES): CO[C@H]1CC[C@H](NC/C=C/C(=O)Nc2c(F)cc(C(=O)c3cn4c5c(cccc35)-c3c(C)cc5c(nc(C)n5C)c3OC[C@@H]4C)cc2F)CC1 [Example 18, (E)-N-(2,6-difluoro-4-((S)-6,8,9,13-tetramethyl-12,13-dihydro-8H-imidazo[4″,5″:3′,4]benzo[1′,2′:7,8][1,4]oxazocino[6,5,4-hi]indole-2-carbonyl)phenyl)-4-(((1,4r)-4-methoxycyclohexyl)amino)but-2-enamide]
- IC50 (MIA PaCa-2 cells; [4]): 21 nM
- IC50 [1, 6]: 19 nM

Structure (SMILES): CO[C@H]1CC[C@H](NC/C=C/C(=O)Nc2c(F)cc(C(=O)c3cn4c5c(cccc35)-c3c(C)cc5c(nc(C)n5C)c3OC[C@H](C)C4)cc2F)CC1 (single isomer, unassigned) [Example 23]
- IC50 (MIA PaCa-2 cells; Table 3): 13 nM
- IC50 [1, 6]: 19 nM

Structure (SMILES): Cc1cc2c(nc(C)n2C)c2c1-c1cccc3c(C(=O)c4cc(F)c(NC(=O)/C=C/CNC5CCOC5(C)C)c(F)c4)cn(c13)CCN2C (stereo not shown) [Example 123, (E)-N-(2,6-difluoro-4-(6,8,9,11-tetramethyl-8,11,12,13-tetrahydro-imidazo[4″,5″:5′,6′]benzo-[1′,2′:5,6][1,4]diazocino-[7,8,1-hi]indole-2-carbon-yl)phenyl)-4-((2,2-dimeth-yltetrahydrofuran-3-yl)-amino)but-2-enamide]
- IC50 (MIA PaCa-2 cells; [2]): 35 nM
- IC50 ([1]; IC50, GMPPNP-bound KRAS G12C incubated with compound 25° C. 1 hour, Table 2-1): 41.8 nM

Structure (SMILES): Cn1cnc2c3c(c(C(F)(F)F)cc21)-c1cccn2c(C(=O)c4cc(F)c(NC(=O)/C=C/CN5CC[C@H]6CC[C@@H](O)[C@H]65)c(F)c4)cc(c12)CCO3 (racemic) [Example 164]
- IC50 (MIA PaCa-2 cells; [2]): 13.7 nM
- IC50 [1, 3]: 21.5 nM

Structure (SMILES): Cn1cnc2c3c(c(C(F)(F)F)cc21)-c1cccn2c(C(=O)c4cc(F)c(NC(=O)/C=C/CN5C[C@@H]6COC[C@H]6C5)c(F)c4)cc(c12)CCO3 (racemic) [Example 248]
- IC50 (MIA PaCa-2 cells; [2]): 21.8 nM
- IC50 [1, 3]: 18 nM

Structure (SMILES): COCCn1cnc2c3c(c(OC)cc21)-c1cccn2c(C(=O)c4cc(F)c(NC(=O)/C=C/CNC5(C)CC5)c(F)c4)cc(c12)CCN3C (single isomer, unassigned) [Example 202, (E)-N-(2,6-difluoro-4-(7-methoxy-9-(2-methoxy-ethyl)-12-methyl-9,12,13,14-tetrahydro-imidazo[4″,5″:5′,6′]benzo-[1′,2′:2,3]azocino[4,5,6-hi]indolizine-2-carbonyl)-phenyl)-4-((1-methyl-cyclopropyl)amino)but-2-enamide]
- IC50 (MIA PaCa-2 cells; [2]): 10.2 nM
- IC50 [1, 3]: 13 nM
